Measured values published in US5962493A, “2-mercaptobenzimidazole derivatives and antihyperlipemic agent or antiarteriosclerotic agent containing the same” (priority 1997, dated 1999).
Where two headings read alike, the source gives them in different places.

Assays:
[1] = test system: mouse peritoneal macrophage; details: dose 5 μM, microscopic observation
[2] = test system: mouse peritoneal macrophage; experiment: In vitro tests on inhibition of foaming of macrophage with mouse peritoneal macrophage (cholesteryl ester formation); format: cell-based, mouse (female ICR); details: 16 hours at 37° C., read-out: CE (%) (cholesteryl ester-forming rate, ratio to the control)
Description: (1) In vitro tests on inhibition of foaming of macrophage with mouse peritoneal macrophage:
The necks of 15-week old female ICR mice (Japan SLC) were cut off. After blood-letting, Hanks buffer solution (Nissui Seiyaku Co., Ltd.) was injected into the abdominal cavity of each mouse. The abdomen was massaged and then the buffer solution was rapidly recovered, centrifuged at 1000 rotations for 5 minutes to collect the peritoneal macrophages. The peritoneal macrophases thus collected were then suspended in GIT medium (Wako Pure Chemical Industries, Ltd.), and the suspension was spread on a 24-hole microplate. After the cultivation at 37° C. in 5% CO2 for 2 hours, the medium was replaced with a Dulbecoo Modified Eagle's MEM medium (Nissui Seiyaku Co., Ltd.). After the cultivation at 37° C. in 5% CO2 for additional 16 hours, the following substances were added in the following order:
(1) subject: dissolved in DMSO (Wako Pure Chemical Industries, Ltd.)
PC: phosphatidyl choline (a product of Funakoshi)
PS: phosphatidyl serine (ditto)
DCP: dicetyl phosphate (ditto)
CHOL.: cholesterol (Sigma).
After further cultivation at 37° C. in 5% CO2 for 16 hours, the lipid fraction was extracted with chloroform and methanol. The lipid fraction thus extracted was dissolved in isopropyl alcohol, and the formed cholesteryl ester (CE) was determined by an enzymatic coloring method. The cholesteryl ester-forming rate of each compound was calculated in terms of the ratio thereof to the control. The cytotoxicity was examined by microscopic observation of the shape of the cell.
The pharmacological effects of the compounds given in Table 2 were evaluated in the same manner as that of Example 3.

| SMILES | Cytotoxicity ([1]; Table 2) | other results |
| --- | --- | --- |
| c1cc(CSc2nc3ccccc3[nH]2)cc(CSc2nc3ccccc3[nH]2)c1 [IV-14, 1,3-bis(2-benzimidazoylthiomethyl)benzene] | none |  |
| CCCn1c(SCCOCCOCCSc2nc3ccccc3n2CCC)nc2ccccc21 [Compound (21)] |  | Cytotoxicity ([1]; Table 1): none; activity at 5 µM ([2]; Table 1, ratio to control): 23% |
| CCC(=O)n1c(SCCOCCSc2nc3cc(Cl)c(Cl)cc3n2C(=O)CC)nc2cc(Cl)c(Cl)cc21 [Compound (17)] |  | Cytotoxicity ([1]; Table 1): none; activity at 5 µM ([2]; Table 1, ratio to control): 27% |
| CCCn1c(SCCCCCSc2nc3cc(Cl)c(Cl)cc3n2CCC)nc2cc(Cl)c(Cl)cc21 [II-34, 1,5-bis(5,6-dichloro-1-propyl-2-benzimidazoylthio) pentane] | none |  |
| O=[N+]([O-])c1ccc2[nH]c(SCCOCCSc3nc4cc([N+](=O)[O-])ccc4[nH]3)nc2c1 [Compound (18)] |  | Cytotoxicity ([1]; Table 1): none; activity at 5 µM ([2]; Table 1, ratio to control): 10% |
| CCC(=O)n1c(SCCCCCSc2nc3ccccc3n2C(=O)CC)nc2ccccc21 [II-2, 1,5-bis(1-propionyl-2-benzimidazoylthio)pentane] | none |  |
| Cn1c(SCCCCCSc2nc3cc(Cl)c(Cl)cc3n2C)nc2cc(Cl)c(Cl)cc21 [II-33, 1,5-bis(5,6-dichloro-1-methyl-2-benzimidazoylthio) pentane] | none |  |
| Cc1ccc2[nH]c(SCCOCCSc3nc4cc(C)ccc4[nH]3)nc2c1 [Compound (11)] |  | Cytotoxicity ([1]; Table 1): none; activity at 5 µM ([2]; Table 1, ratio to control): 38% |
| c1ccc2[nH]c(SCCCCCCSc3nc4ccccc4[nH]3)nc2c1 [IV-1, 1,6-bis(2-benzimidazoylthio)hexane] | none | activity at 5 µM ([2]; Table 2, ratio to control): 28% |
| Clc1cc2nc(SCCCCCSc3nc4cc(Cl)c(Cl)cc4[nH]3)[nH]c2cc1Cl [Compound I-4, 1,5-bis(5,6-dichloro-2-benzimidazoylthio)Pentane] | none |  |
| CCCn1c(SCCOCCSc2nc3ccccc3n2CCC)nc2ccccc21 [Compound (8)] |  | Cytotoxicity ([1]; Table 1): none; activity at 5 µM ([2]; Table 1, ratio to control): 16% |
| Cn1c(SCCCCCSc2nc3ccccc3n2C)nc2ccccc21 [II-28, 1,5-bis(1-methyl-2-benzimidazoylthio)pentane] | none |  |
| CCC(=O)n1c(SCCOCCOCCSc2nc3ccccc3n2C(=O)CC)nc2ccccc21 [Compound (20)] |  | Cytotoxicity ([1]; Table 1): none; activity at 5 µM ([2]; Table 1, ratio to control): 69% |
| c1ccc(Cn2c(SCCCCCSc3nc4ccccc4n3Cc3ccccc3)nc3ccccc32)cc1 [II-32, 1.5-bis(1-benzyl-2-benzimidazoylthio)pentane] | none |  |
| CCCC(=O)n1c(SCCOCCSc2nc3ccccc3n2C(=O)CCC)nc2ccccc21 [Compound (3)] |  | Cytotoxicity ([1]; Table 1): none; activity at 5 µM ([2]; Table 1, ratio to control): 15% |
| CCC(=O)n1c(SCCCCCCSc2nc3ccccc3n2C(=O)CC)nc2ccccc21 [II-10, 1,6-bis(1-propionyl-2-benzimidazoylthio)hexane] | none |  |
| CCCCCCCCCCCCCC(=O)n1c(SCCOCCSc2nc3ccccc3n2C(=O)CCCCCCCCCCCCC)nc2ccccc21 [Compound (7)] |  | Cytotoxicity ([1]; Table 1): none; activity at 5 µM ([2]; Table 1, ratio to control): 74% |
| CCC(=O)n1c(SCCCCCSc2nc3cc(C)c(C)cc3n2C(=O)CC)nc2cc(C)c(C)cc21 [II-15, 1,5-bis(5,6-dimethyl-1-propionyl-2-benzimidazoylthio) pentane] | none |  |
| O=[N+]([O-])c1ccc2[nH]c(SCCCCCSc3nc4cc([N+](=O)[O-])ccc4[nH]3)nc2c1 [IV-5, 1,5-bis(5-nitro-2-benzimidazoylthio)pentane] | none |  |

| SMILES | Cytotoxicity ([1]; Table 2) | other results |
| --- | --- | --- |
| CCCCCCCCn1c(SCCCCCSc2nc3ccccc3n2CCCCCCCC)nc2ccccc21 [II-30, 1,5-bis(l-octyl-2-benzimidazoylthio)pentane] | none |  |
| Cc1cc2nc(SCCCCCSc3nc4cc(C)c(C)cc4[nH]3)[nH]c2cc1C [Compound I-2, 1,5-bis(5,6-dimethyl-2-benzimidazoylthio)pentane] | none |  |
| c1ccc2[nH]c(SCCCCSc3nc4ccccc4[nH]3)nc2c1 [IV-3, 1,4-bis(2-benzimidazoylthio)butane] | none |  |
| CCCn1c(SCCCCCSc2nc3ccccc3n2CCC)nc2ccccc21 [II-29, 1,5-bis(1-propyl-2-benzimidazoylthio)pentane] | none |  |
| CCC(=O)n1c(SCc2cccc(CSc3nc4ccccc4n3C(=O)CC)c2)nc2ccccc21 [II-13, 1,3-bis(1-propionyl-2-benzimidazoylthiomethyl)benzene] | none |  |
| CCC(=O)n1c(SCCCCCSc2nc3ccc(Cl)cc3n2C(=O)CC)nc2cc(Cl)ccc21 [II-20, 1-(5-chloro-1-propionyl-2-benzimidazoylthio)-5-(6-chloro-1-propionyl-2-benzimidazoylthio)pentane] | none |  |
| CCC(=O)n1c(SCCCCSc2nc3ccccc3n2C(=O)CC)nc2ccccc21 [II-9, 1,4-bis(1-propionyl-2-benzimidazoylthio)butane] | none |  |
| CCC(=O)Nc1ccc2[nH]c(SCCCCCSc3nc4cc(NC(=O)CC)ccc4[nH]3)nc2c1 [IV-8, 1,5-bis(5-propanamido-2-benzimidazoylthio)pentane] | none |  |
| CCCCC(CC)Cn1c(SCCCCCSc2nc3ccccc3n2CC(CC)CCCC)nc2ccccc21 (centres unmarked) [II-31, 1,5-bis(1-(2-ethylhexyl)-2-benzimidazoylthio)pentane] | none |  |
| COc1ccc2[nH]c(SCCCCCSc3nc4cc(OC)ccc4[nH]3)nc2c1 [IV-4, 1,5-bis(5-methoxyl-2-benzimidazoylthio)pentane] | none |  |
| Cn1c(SCCCCCCCCSc2nc3ccccc3n2C)nc2ccccc21 [II-35, 1,8-bis(1-methyl-2-benzimidazoylthio)octane] | none |  |
| O=C(c1ccc(Cl)cc1)n1c(SCCCCCSc2nc3ccccc3n2C(=O)c2ccc(Cl)cc2)nc2ccccc21 [II-6, 1,5-bis(1-(4-chlorobenzoyl)-2-benzimidazoylthio) pentane] | none |  |
| CC(=O)n1c(SCCCCCSc2nc3ccccc3n2C(C)=O)nc2ccccc21 [II-1, 1,5-bis(1-acetyl-2-benzimidazoylthio)pentane] | none |  |
| CCC(=O)n1c(SCc2ccc(CSc3nc4ccccc4n3C(=O)CC)cc2)nc2ccccc21 [II-12, 1,4-bis(1-propionyl-2-benzimidazoylthiomethyl)benzene] | none |  |
| Cc1ccc2[nH]c(SCCCCCSc3nc4cc(C)ccc4[nH]3)nc2c1 [Compound I-1, 1,5-bis(5-methyl-2-benzimidazoylthio)pentane] | none |  |
| CCCCC(CC)C(=O)n1c(SCCCCCSc2nc3ccccc3n2C(=O)C(CC)CCCC)nc2ccccc21 (centres unmarked) [II-4, 1,5-bis(1-(2-ethylhexanoyl)-2-benzimidazoylthio) pentane] | none |  |
| CCC(=O)n1c(SCCCCCCCCSc2nc3ccccc3n2C(=O)CC)nc2ccccc21 [II-11, 1,8-bis(1-propionyl-2-benzimidazoyl-thio)octane] | none |  |
| Clc1ccc2[nH]c(SCCCCCSc3nc4cc(Cl)ccc4[nH]3)nc2c1 [Compound I-3, 1,5-bis(5-chloro-2-benzimidazoylthio)pentane] | none |  |
| c1ccc2[nH]c(SCc3ccc(CSc4nc5ccccc5[nH]4)cc3)nc2c1 [IV-13, 1,4-bis(2-benzimidazoylthiomethyl)benzene] | none |  |
